The values that follow are results of earlier work, collected in patent publication US8759069B2, “Contaminant control in Zymomonas fermentation using hop acids” (priority 2012, dated 2014).

Data set [1] deals with Zymomonas mobilis strain ZM4. Particulars: antibiotic concentrations that are safe to use with yeast.
In the next data set the test system is bacterial contamination. Particulars: batch Zymomonas mobilis fermentation for ethanol production.

As for `CC1(C)S[C@@H]2[C@H](NC(=O)Cc3ccccc3)C(=O)N2[C@H]1C(=O)O` [penicillin G], in data set [1], the “effect on Zymomonas mobilis strain ZM4” value is “safe for use with Zymomonas”. The “control of bacterial contamination” value in the data set with bacterial contamination is listed as “successfully used to control bacterial contamination”.

With polymixin, in data set [1], the “effect on Zymomonas mobilis strain ZM4” value is on record as “inhibitory to growth”.

As to `[H]/N=C(/N)N[C@H]1[C@H](O)[C@@H](O)[C@H](O[C@@H]2O[C@@H](C)[C@](O)(C=O)[C@H]2O[C@@H]2O[C@@H](CO)[C@H](O)[C@@H](O)[C@@H]2NC)[C@@H](N/C(N)=N\[H])[C@@H]1O` [streptomycin], in data set [1], the “effect on Zymomonas mobilis strain ZM4” value is reported as “inhibitory to growth”.
